Reference: PMC9996038, “Binding of RPR260243 at the intracellular side of the hERG1 channel pore domain slows closure of the helix bundle crossing gate” (Frontiers in Molecular Biosciences, 2023)

Biological target: T1, hERG1a (human ether-à-go-go-related gene type 1, Kv11.1) (Homo sapiens, UniProt Q12809)
T1 construct: gene KCNH2; EC50 on split hERG1a (residues 1–545 VSD module + residues 546–1,159 pore module, coexpressed)
Experiment: two-electrode voltage clamp of channels expressed in Xenopus oocytes (slowing of deactivation)
Format: cell-based

T1 sequence (Q12809 546-1159): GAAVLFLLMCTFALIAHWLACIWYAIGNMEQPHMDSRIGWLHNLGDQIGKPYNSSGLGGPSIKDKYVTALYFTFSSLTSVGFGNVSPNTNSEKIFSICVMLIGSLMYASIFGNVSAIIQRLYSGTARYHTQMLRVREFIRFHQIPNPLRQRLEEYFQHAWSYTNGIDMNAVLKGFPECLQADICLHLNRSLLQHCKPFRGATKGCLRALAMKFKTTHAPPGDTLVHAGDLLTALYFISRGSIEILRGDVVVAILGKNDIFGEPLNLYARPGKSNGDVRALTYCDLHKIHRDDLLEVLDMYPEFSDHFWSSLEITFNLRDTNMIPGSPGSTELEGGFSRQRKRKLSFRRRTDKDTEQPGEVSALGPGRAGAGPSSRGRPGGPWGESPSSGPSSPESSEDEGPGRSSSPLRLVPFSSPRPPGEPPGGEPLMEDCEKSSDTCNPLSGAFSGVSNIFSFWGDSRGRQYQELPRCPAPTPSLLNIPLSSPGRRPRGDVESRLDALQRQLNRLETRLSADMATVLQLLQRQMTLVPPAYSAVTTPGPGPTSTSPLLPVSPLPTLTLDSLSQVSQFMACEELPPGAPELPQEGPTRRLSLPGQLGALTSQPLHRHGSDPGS
T1 sequence (Q12809 1-545 partner): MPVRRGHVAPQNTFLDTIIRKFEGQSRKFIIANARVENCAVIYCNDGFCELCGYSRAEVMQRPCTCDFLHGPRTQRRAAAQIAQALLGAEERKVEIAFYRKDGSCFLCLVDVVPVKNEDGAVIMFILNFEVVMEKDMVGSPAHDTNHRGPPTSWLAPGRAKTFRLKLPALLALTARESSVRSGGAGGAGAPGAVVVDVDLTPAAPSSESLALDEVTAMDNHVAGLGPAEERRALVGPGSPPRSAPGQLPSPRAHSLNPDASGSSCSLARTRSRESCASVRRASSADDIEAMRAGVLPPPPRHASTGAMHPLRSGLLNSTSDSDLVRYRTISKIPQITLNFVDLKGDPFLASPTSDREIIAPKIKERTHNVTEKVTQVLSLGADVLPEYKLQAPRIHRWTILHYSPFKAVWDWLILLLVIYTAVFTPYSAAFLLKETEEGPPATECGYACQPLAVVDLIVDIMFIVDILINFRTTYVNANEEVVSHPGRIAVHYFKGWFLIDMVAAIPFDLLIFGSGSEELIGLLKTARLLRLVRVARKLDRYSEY

COc1ccc2nccc(C(=O)CC[C@@H]3CCN(CC#Cc4cc(F)cc(F)c4F)C[C@@H]3C(=O)O)c2c1 [RPR, (3R,4R)-4-[3-(6-methoxyquinolin-4-yl)-3-oxo-propyl]-1-[3-(2,3,5-trifluorophenyl)-prop-2-ynyl]-piperidine-3-carboxylic acid]
EC50: 7.9 ± 1 µM
